Data as given in patent US11976063B2, “Pharmaceutical composition comprising berberine and ursodeoxycholic acid for the treatment of various diseases or disorders” (priority 2014, dated 2024).
Counter-ions that a name gives are not always drawn.

Key:
[1] = tested on: high fat diet (HFD) and streptozotocin (STZ) induced diabetic mice; assay type: in vivo
Procedure: This example describes an in vivo efficacy study of the combinations disclosed in the present invention using a high fat diet (HFD) and streptozotocin (STZ) induced diabetic mice model.
Sixty NIH male mice of 4 weeks old were acquired from Guangzhou Institute of Laboratory Animal. After acclimatization for one week, five mice were selected as normal control group (Group 1), the rest fifty-five mice were administered single dose of STZ at the dose of 40 mg/kg, and fed with HFD (in which 40% of calories is from fat) for 7 days to establish a diabetic animal model resembling the pathophysiology of type 2 diabetes in human. Mice in the normal control group were not administered STZ, and fed with normal chow diet.
The mice from Group 2 to 5 were treated with the corresponding testing articles indicated above once daily by intragastric gavage. HFD continued throughout the duration of the treatment of 28 days. The normal mice (Group 1) were treated with normal saline by intragastric gavage. Fasting blood glucose, total cholesterol (TC) and triglyceride (TG) levels, food intake, water intake and body weight were measured throughout the study.
On day 28 of the treatment, an oral glucose tolerance test (OGTT) was performed in 12-hour fasted animals. For the OGTT, after the measurement of the basal glucose concentration (T=−30 min), mice received an oral glucose challenge at 2.5 g/kg and glucose values were determined by glucometer (ACCU-CHEK Active, Roche) at 0, 30, 60 and 120 min.
After OGTT, blood samples were collected for the measurement of blood glucose, TC and TG. The mice were sacrificed, and the pancreas, liver, kidney and fat were harvested for histopathology analysis.

[2] = tested on: high fat diet (HFD) induced non-alcoholic fatty liver mice; experiment: High fat diet induced non-alcoholic fatty liver mice model (Example 5); assay type: in vivo, NIH male mice
Excerpt: This example describes an in vivo efficacy study of BUDCA disclosed in the present invention using a high fat diet (HFD) induced non-alcoholic fatty liver mice model.
91 NIH male mice of 4 weeks old were obtained from Vital River Laboratories (Beijing, China). After acclimatization for one week, 13 mice were selected as control group (Group 1, G1) with normal chow diet fed, and the other 78 mice were fed with HFD (in which 40% of calories is from fat) for 4 weeks to establish an animal model resembling the pathophysiology of non-alcoholic fatty liver in human.
Following 4 weeks of high fat dietary intervention, the 78 mice were divided into 6 groups according to body weight (n=13 per group): • Group 2, G2: Vehicle control (0.5% CMC-Na solution) • Group 3, G3: Low-dose group of BUDCA (30 mg/kg) • Group 4, G4: Middle-dose group of BUDCA (100 mg/kg) • Group 5, G5: High-dose group of BUDCA (300 mg/kg) • Group 6, G6: BBR control group (Berberine HCl, 150 mg/Kg) • Group 7, G7: UDCA control group (Ursodeoxycholic acid, 150 mg/Kg)
The mice from G2 to G7 were administered with the corresponding testing articles indicated above once daily by intragastric gavage. HFD continued throughout the duration of the treatment of 6 weeks. The normal mice (G1) were treated with vehicle (0.5% CMC-Na solution) via intragastric gavage. At the end of experiment, the following biochemical parameters were measured and tests were carried out: • Body weight, the weight ratio of liver • Total cholesterol (TC) and triglyceride (TG) levels, high density lipoprotein cholesterol (HDL-C) and low density lipoprotein cholesterol (LDL-C) levels • Alanine aminotransferase (ALT) and aspartate aminotransferase (AST) levels • Superoxide dismutase (SOD) activity and malondialdehyde (MDA) level • Oral glucose tolerance test (OGTT) • Histopathological examination of liver ([…] staining)
After 6 weeks treatment, blood was collected via retro-orbital bleeding of each 12-hour fasted animal. Liver was harvested by surgery for histopathology analysis after weight measurement. Then the serum was isolated for the determination of TC, TG, HDL-C, LDL-C, ALT, AST, SOD and MDA.
One week before sacrifice (Week 5 of treatment), an oral glucose tolerance test (OGTT) was performed in 12-hour fasted animals. For the OGTT, all mice received an oral glucose challenge at 2.0 g/Kg and the blood glucose concentrations were determined by glucometer (ACCU-CHEK Active, Roche) at 0, 30, 60, 90 and 120 min.
The liver tissue was histopathologically evaluated by […] staining after frozen section.

[3] = tested on: high fat diet (HFD) induced obesity mice; experiment: High fat diet induced obesity mice model (Example 2); assay type: in vivo, NIH male mice; conditions: used individually at 50 mg/Kg, once daily i.g., interim results at 15 days
Excerpt: This example describes an in vivo efficacy study of the combinations disclosed in the present invention using a high fat diet (HFD) induced obesity mice model.
Fifty NIH male mice of 4 weeks old were acquired (Guangzhou Institute of Laboratory Animal). After acclimatization for one week, eight mice were selected as normal control; the rest forty-two mice were fed with HFD (in which 40% of calories is from fat) for 14 days to establish a HFD induced obesity mice model resembling the pathophysiology of metabolic syndrome in human. Normal control mice were fed with normal chow diet. […]
The mice from Group 1 to 4 were treated with the corresponding testing articles indicated above once daily by intragastric gavage. […] Blood glucose (fasting and non-fasting), total cholesterol (TC) and triglyceride (TG) levels, food intake, water intake and body weight were measured throughout the study.
On day 28 of the treatment, an oral glucose tolerance test (OGTT) was performed in 12-hour fasted animals. For the OGTT, after the measurement of the basal glucose concentration (T=−30 min), mice received an oral glucose challenge at 2.5 g/Kg and glucose values were determined by glucometer (ACCU-CHEK Active, Roche) at 0, 30, 60 and 120 min. […]

[4] = Day 0 (before treatment), same doses
[5] = Day 3, same doses, once daily i.g.
[6] = Day 27, same doses, once daily i.g.
[7] = Day 28, same doses, once daily i.g.
[8] = 150 mg/Kg (G6 Berberine HCl; G7 UDCA), i.g. once daily, 6 weeks, HFD, mean ± S.E.M
[9] = serum, 150 mg/Kg (G6 Berberine HCl; G7 UDCA), i.g. once daily, 6 weeks, HFD, mean ± S.E.M

SMILES | Body weight [2, 8] | Weight ratio of liver [2, 8] | ALT [2, 9] | AST [2, 9] | HDL-C [2, 9] | LDL-C [2, 9] | SOD [2, 9] | TC [2, 9] | TG [2, 9] | Pharmacological effects comparing to the vehicle control group [3] | other results
CN(C)C(=N)NC(=N)N [Metformin, N,N-Dimethylimidodicarbonimidic diamide] | – | – | – | – | – | – | – | – | – | – | Effect on symptoms of diabetes (overall efficacy) ([1]; 28 days treatment, HFD/STZ mice): did not demonstrate a clear efficacy; Fasting blood glucose, Day 0 ([1]; Day 0 (before treatment), metformin 300 mg/kg, berberine 150 + UA 150 mg/kg, berberine 150 + EPA 75 + DHA 75 mg/kg): 24.08 ± 5.44 mmol/L; Weight, Day 0 ([1]; Day 0 (before treatment), metformin 300 mg/kg, berberine 150 + UA 150 mg/kg, berberine 150 + EPA 75 + DHA 75 mg/kg, once daily i.g.): 26.30 ± 2.54 g; Total Cholesterol, Day 0 [1, 4]: 297.96 ± 67.09 mg/dL; Triglyceride, Day 0 [1, 4]: 2.40 ± 1.03 mmol/L; Food Intake, Day 3 [1, 5]: 8.66 g; Water intake, Day 3 [1, 5]: 19.40 mL; Water intake, Day 6 ([1]; Day 6, same doses, once daily i.g.): 23.60 mL; Weight, Day 27 ([1]; Day 27, metformin 300 mg/kg, berberine 150 + UA 150 mg/kg, berberine 150 + EPA 75 + DHA 75 mg/kg, once daily i.g.): 36.99 ± 3.90 g; Food Intake, Day 27 [1, 6]: 9.37 g; Water intake, Day 27 [1, 6]: 34.40 mL; Fasting blood glucose, Day 28 [1, 7]: 21.66 ± 4.71 mmol/L; Total Cholesterol, Day 28 [1, 7]: 436.99 ± 159.73 mg/dL; Triglyceride, Day 28 [1, 7]: 6.06 ± 6.71 mmol/L
COc1ccc2cc3[n+](cc2c1OC)CCc1cc2c(cc1-3)OCO2 [Berberine HCl, reference compound] | 42.4 ± 1.37 g | 4.26 ± 0.12% | 37.1 ± 4.08 U/L | 198.7 ± 18.93 U/L | 2.47 ± 0.20 mmol/L | 1.42 ± 0.21 mmol/L | 77.03 ± 8.98 U/mL | 5.97 ± 0.47 mmol/L | 1.00 ± 0.08 mmol/L | – | MDA [2, 9]: 9.3 ± 2.14 µM
C[C@H](CCC(=O)O)[C@H]1CC[C@H]2[C@@H]3[C@@H](O)C[C@@H]4C[C@H](O)CC[C@]4(C)[C@H]3CC[C@]12C [UDCA, 3α,7β-dihydroxy-5β-cholan-24-oic acid, reference compound] | 42.0 ± 1.16 g | 4.77 ± 0.26% | 30.6 ± 5.73 U/L | 162.86 ± 29.42 U/L | 2.13 ± 0.33 mmol/L | 1.37 ± 0.26 mmol/L | 44.75 ± 11.99 U/mL | 4.77 ± 0.70 mmol/L | 1.20 ± 0.22 mmol/L | – | –
O=C(O)CC(O)(C(=O)O)C(O)C(=O)O (stereo not drawn) [hydroxycitric acid, 1,2-dihydroxypropane-1,2,3-tricarboxylic acid] | – | – | – | – | – | – | – | – | – | neither berberine (Group 2), nor hydroxycitric acid (Group 3) demonstrated any pharmacological effects | –
COc1ccc2cc3[n+](cc2c1OC)CCc1cc2c(cc1-3)OCO2 [berberine, 5,6-dihydro-9,10-dimethoxybenzo[g]-1,3-benzodioxolo[5,6-a]quinolizinium] | – | – | – | – | – | – | – | – | – | neither berberine (Group 2), nor hydroxycitric acid (Group 3) demonstrated any pharmacological effects | Animals showing gastrointestinal side effects at the time of sacrifice ([2]; berberine treatment group (150 mg/Kg), 6 weeks i.g.): 50 % of animals
